Legend:
[1] = target: T1, Tyrosine-protein kinase receptor TYRO3 (Homo sapiens) (UniProt Q06418); assay: Inhibition of human SKY at 18.6 nM by HotSpot assay relative to control
T1 sequence (whole entry): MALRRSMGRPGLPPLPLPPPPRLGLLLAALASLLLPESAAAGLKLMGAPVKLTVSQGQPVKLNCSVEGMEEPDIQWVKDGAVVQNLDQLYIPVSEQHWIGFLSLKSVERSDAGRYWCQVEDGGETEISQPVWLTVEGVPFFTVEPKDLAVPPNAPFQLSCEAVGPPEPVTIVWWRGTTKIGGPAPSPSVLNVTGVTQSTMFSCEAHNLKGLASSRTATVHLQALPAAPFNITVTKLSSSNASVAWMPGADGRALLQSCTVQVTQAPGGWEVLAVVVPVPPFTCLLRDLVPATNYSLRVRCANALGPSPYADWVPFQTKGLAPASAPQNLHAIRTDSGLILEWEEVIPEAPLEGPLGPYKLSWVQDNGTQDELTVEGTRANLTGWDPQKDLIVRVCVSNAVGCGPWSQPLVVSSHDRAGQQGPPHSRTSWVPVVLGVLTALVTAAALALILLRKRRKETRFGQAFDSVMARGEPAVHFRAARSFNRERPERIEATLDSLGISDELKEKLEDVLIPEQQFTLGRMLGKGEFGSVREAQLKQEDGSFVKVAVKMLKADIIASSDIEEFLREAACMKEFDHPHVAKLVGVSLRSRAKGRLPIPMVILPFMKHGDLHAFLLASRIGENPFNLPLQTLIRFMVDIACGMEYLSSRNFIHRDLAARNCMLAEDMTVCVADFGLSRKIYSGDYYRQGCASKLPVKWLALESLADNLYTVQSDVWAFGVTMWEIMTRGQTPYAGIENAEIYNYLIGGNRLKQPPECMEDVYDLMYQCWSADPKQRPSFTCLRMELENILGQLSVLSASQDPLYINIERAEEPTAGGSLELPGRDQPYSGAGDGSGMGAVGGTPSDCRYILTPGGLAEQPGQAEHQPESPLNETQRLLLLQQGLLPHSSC

[2] = target: Tyrosine-protein kinase Fes/Fps (Homo sapiens) (UniProt P07332); assay: Inhibition of human FES at 18.6 nM by HotSpot assay relative to control
[3] = target: Serine/threonine-protein kinase PLK3 (Homo sapiens) (UniProt Q9H4B4); assay: Inhibition of human PLK3 at 18.6 nM by HotSpot assay relative to control
[4] = target: Vascular endothelial growth factor receptor 1 (Homo sapiens) (UniProt P17948); assay: Inhibition of human FLT1 at 18.6 nM by HotSpot assay relative to control
[5] = target: Mitogen-activated protein kinase kinase kinase kinase 5 (Homo sapiens) (UniProt Q9Y4K4); assay: Inhibition of human KHS at 18.6 nM by HotSpot assay relative to control
[6] = target: T2, Cytoplasmic tyrosine-protein kinase BMX (Homo sapiens) (UniProt P51813); assay: Inhibition of human BMX at 18.6 nM by HotSpot assay relative to control
T2 sequence (whole entry): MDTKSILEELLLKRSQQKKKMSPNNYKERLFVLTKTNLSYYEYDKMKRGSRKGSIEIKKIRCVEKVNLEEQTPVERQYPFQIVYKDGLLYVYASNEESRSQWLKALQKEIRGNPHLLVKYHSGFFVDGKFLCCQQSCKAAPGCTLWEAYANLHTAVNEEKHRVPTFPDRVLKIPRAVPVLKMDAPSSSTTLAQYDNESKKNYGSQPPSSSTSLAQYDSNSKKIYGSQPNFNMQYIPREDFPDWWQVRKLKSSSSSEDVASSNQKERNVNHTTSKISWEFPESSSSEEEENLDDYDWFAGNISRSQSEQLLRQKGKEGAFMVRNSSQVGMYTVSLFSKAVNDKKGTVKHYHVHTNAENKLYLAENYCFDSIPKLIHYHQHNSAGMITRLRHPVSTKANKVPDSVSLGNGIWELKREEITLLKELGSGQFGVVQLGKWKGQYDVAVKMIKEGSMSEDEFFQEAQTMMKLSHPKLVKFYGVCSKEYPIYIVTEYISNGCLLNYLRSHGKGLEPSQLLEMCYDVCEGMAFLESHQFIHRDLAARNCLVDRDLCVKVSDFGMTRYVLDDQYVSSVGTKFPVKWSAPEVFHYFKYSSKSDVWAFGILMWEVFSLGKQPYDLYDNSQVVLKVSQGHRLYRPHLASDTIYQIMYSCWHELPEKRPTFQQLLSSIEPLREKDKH

[7] = target: Serine/threonine-protein kinase 10 (Homo sapiens) (UniProt O94804); assay: Inhibition of human LOK at 18.6 nM by HotSpot assay relative to control
[8] = target: Protein kinase C beta type (Homo sapiens) (UniProt P05771); assay: Inhibition of human PKCb2 at 18.6 nM by HotSpot assay relative to control
[9] = target: Serine/threonine-protein kinase PAK 3 (Homo sapiens) (UniProt O75914); assay: Inhibition of human PAK3 at 1.82 nM by HotSpot assay relative to control
[10] = target: Macrophage-stimulating protein receptor (Homo sapiens) (UniProt Q04912); assay: Inhibition of human MST1R at 1.82 nM by HotSpot assay relative to control
[11] = target: Vascular endothelial growth factor receptor 1 (Homo sapiens) (UniProt P17948); assay: Inhibition of human FLT1 at 1.82 nM by HotSpot assay relative to control
[12] = target: T3, Protein kinase C iota type (Homo sapiens) (UniProt P41743); assay: Inhibition of human PKCiota at 1.82 nM by HotSpot assay relative to control
T3 sequence (whole entry): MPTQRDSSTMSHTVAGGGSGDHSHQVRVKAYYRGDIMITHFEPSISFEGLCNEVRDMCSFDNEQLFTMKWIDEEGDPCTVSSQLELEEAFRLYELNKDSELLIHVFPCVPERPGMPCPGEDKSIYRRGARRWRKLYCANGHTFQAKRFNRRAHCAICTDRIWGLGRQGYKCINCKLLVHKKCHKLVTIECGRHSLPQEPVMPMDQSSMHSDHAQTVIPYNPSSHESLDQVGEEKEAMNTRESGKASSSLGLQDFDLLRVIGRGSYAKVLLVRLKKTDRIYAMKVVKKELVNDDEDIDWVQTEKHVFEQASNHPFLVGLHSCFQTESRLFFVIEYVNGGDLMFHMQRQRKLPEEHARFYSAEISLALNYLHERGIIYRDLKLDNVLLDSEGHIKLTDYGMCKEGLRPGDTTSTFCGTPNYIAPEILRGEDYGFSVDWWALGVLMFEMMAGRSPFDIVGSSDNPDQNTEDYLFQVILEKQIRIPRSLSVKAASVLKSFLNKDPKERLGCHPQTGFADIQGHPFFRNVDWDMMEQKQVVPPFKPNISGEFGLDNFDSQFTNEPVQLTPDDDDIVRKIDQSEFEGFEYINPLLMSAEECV

Chain of Vascular endothelial growth factor receptor 1 (Homo sapiens) (P17948 whole entry): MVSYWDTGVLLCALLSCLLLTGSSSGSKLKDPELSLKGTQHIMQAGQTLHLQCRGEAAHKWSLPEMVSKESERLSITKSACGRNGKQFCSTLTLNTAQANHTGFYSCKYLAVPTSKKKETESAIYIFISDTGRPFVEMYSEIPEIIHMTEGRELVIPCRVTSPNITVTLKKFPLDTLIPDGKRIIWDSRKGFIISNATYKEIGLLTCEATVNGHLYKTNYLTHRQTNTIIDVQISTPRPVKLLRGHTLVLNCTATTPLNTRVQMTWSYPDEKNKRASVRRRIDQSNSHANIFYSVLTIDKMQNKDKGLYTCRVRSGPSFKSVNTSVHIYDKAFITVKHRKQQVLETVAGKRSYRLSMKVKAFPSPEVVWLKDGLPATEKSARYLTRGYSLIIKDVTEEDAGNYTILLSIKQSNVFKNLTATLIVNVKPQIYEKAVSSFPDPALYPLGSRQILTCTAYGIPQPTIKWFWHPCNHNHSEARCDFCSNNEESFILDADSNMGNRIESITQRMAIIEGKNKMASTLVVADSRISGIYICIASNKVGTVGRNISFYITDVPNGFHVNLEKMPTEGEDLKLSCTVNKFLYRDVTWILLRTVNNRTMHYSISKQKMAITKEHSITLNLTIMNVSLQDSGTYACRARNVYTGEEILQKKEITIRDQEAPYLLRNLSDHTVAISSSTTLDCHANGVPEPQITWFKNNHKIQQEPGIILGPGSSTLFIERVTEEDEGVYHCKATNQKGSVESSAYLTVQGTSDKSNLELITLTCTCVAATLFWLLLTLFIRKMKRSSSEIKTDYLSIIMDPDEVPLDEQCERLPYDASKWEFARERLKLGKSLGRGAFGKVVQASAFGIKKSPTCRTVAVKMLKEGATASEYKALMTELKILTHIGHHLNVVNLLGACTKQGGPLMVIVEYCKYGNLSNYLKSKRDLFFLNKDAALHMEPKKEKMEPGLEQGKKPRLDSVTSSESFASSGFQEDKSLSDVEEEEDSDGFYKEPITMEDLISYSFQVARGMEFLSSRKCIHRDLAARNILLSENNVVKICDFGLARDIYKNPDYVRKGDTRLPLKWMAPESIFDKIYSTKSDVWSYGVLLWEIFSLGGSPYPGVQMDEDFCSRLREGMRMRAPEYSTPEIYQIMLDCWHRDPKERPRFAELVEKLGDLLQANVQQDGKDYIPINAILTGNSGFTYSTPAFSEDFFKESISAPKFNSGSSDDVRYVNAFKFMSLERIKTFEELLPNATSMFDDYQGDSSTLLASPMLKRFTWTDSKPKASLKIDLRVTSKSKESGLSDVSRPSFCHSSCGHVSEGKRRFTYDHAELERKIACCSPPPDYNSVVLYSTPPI
Chain of Serine/threonine-protein kinase PLK3 (Homo sapiens) (Q9H4B4 whole entry, looked up): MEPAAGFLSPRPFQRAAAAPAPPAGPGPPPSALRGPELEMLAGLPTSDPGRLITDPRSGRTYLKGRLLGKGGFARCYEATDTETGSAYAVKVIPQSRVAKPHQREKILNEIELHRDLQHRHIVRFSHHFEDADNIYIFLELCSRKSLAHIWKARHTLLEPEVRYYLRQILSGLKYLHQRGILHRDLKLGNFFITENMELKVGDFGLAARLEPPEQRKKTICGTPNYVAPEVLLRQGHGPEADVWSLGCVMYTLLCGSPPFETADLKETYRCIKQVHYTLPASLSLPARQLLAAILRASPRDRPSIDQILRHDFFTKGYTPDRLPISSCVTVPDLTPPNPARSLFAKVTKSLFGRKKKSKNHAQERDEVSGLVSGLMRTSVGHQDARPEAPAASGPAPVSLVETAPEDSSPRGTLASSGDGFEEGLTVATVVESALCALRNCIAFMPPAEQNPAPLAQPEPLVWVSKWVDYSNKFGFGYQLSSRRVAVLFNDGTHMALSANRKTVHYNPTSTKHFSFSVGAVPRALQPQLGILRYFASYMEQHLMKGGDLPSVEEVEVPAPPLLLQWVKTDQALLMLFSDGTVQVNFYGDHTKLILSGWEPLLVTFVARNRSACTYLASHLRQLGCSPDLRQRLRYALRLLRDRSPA
Chain of Serine/threonine-protein kinase 10 (Homo sapiens) (O94804 whole entry, looked up): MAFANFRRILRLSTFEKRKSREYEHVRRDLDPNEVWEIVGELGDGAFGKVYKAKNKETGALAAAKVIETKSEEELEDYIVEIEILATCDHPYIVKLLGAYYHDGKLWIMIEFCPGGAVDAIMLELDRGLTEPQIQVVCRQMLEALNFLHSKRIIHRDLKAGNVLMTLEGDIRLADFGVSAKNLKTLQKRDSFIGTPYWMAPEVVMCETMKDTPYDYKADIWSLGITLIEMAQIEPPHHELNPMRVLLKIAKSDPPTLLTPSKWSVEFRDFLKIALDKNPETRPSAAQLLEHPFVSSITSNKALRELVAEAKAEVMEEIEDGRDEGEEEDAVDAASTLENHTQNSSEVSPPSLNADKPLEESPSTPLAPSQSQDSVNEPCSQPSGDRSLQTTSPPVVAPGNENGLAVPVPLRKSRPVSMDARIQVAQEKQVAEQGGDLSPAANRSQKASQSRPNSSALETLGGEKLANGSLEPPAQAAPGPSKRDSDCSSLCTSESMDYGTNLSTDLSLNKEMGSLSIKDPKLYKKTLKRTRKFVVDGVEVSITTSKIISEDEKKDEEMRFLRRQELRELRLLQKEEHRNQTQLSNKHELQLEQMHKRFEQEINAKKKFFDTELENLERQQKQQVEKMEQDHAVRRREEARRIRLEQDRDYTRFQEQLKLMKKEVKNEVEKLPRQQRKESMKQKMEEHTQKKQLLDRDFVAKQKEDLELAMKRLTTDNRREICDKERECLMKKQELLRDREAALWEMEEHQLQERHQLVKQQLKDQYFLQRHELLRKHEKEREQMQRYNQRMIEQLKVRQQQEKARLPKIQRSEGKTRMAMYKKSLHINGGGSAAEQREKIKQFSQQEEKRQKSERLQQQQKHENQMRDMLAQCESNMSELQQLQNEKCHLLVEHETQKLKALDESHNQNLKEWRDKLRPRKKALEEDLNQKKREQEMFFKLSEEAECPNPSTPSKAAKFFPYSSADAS
Chain of Macrophage-stimulating protein receptor (Homo sapiens) (Q04912 25-304 limits assumed): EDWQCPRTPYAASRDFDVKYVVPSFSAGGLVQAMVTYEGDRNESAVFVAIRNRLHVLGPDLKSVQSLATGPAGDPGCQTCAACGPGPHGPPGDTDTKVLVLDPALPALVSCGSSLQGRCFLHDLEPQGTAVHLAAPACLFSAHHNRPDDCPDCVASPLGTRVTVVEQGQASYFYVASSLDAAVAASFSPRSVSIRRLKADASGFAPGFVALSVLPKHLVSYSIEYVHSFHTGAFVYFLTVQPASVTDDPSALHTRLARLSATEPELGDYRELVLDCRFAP
Chain of Macrophage-stimulating protein receptor (Homo sapiens) (Q04912 310-1400 limits assumed): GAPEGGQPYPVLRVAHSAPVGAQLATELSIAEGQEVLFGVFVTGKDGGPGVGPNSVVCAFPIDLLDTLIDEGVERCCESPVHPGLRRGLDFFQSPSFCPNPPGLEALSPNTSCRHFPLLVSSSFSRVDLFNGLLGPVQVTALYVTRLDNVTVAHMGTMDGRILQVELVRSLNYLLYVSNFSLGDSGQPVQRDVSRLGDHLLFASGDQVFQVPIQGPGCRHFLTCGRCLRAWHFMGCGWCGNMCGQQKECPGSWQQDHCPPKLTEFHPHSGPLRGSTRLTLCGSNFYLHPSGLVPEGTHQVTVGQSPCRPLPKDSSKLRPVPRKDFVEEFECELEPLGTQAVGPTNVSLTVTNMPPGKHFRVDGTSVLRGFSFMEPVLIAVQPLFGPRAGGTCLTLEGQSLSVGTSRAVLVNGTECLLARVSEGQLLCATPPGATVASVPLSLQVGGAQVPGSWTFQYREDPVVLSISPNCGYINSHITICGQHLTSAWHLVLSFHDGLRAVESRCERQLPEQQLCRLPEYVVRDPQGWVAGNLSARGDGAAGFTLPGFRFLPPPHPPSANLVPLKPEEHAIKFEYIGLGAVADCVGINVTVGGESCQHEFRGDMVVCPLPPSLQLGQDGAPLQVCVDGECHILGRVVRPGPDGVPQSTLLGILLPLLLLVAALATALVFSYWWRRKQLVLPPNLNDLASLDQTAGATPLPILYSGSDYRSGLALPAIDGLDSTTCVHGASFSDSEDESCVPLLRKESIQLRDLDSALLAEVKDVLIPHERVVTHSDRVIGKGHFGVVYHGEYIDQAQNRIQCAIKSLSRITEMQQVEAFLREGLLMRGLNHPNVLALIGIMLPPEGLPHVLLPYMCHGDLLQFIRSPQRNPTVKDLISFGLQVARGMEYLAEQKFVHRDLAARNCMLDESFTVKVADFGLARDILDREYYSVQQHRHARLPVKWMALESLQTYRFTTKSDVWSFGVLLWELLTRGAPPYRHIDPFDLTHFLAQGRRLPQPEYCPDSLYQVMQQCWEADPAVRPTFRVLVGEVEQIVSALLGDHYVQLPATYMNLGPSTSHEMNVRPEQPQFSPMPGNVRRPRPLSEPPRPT
Chain of Protein kinase C beta type (Homo sapiens) (P05771 2-671 limits assumed): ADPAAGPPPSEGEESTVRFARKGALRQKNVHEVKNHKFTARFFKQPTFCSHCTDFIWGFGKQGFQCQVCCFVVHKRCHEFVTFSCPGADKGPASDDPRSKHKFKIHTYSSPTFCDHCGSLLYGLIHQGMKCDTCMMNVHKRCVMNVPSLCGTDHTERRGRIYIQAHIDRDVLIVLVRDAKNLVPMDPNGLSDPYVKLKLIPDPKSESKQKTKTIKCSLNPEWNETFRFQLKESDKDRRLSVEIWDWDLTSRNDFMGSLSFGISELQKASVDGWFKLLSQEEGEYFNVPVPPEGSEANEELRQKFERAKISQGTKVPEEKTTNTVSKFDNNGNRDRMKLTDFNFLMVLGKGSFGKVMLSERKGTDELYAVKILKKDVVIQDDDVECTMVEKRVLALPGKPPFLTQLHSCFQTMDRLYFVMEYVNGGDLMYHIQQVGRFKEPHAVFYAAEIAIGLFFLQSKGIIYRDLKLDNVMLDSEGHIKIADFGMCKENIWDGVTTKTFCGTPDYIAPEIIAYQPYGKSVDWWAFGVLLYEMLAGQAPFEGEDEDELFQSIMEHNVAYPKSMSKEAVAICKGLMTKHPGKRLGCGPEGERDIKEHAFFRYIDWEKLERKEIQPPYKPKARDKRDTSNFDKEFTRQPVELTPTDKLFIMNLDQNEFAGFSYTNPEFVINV

SMILES	inhibition [1]	inhibition [2]	inhibition [3]	inhibition [4]	inhibition [5]	inhibition [6]	inhibition [7]	inhibition [8]	inhibition [9]	inhibition [10]	inhibition [11]	inhibition [12]
C[C@]1(O)C[C@@H](c2nc(-c3ccc4ccc(-c5ccccc5)nc4c3)c3c(N)nccn32)C1	1.42%	1.59%	3.09%	-4.23%	12.1%	-2.96%	9.09%	-7.92%				
C[C@@]1(C(=O)Nc2ccc(F)nc2)CCCN1c1nc(Nc2cc(C3CC3)n[nH]2)c2cccn2n1									-2.89%	0.1%	-4.89%	-0.86%
